Tested on: female mosquitoes
Experiment: Y-olfactometer test of attractiveness (activation and orientation of mosquitoes)
Format: in vivo
Details: A0, B0, C0 together, regardless of the CO2 concentration used
Text: Olfactometer tests are particularly useful during product development. They are used to filter out the most promising candidate substances from a number of interesting attractants or repellents quickly and cost-effectively. In particular, the olfactometer 60 has the form of a “Y”. A cage with piercing joyful female mosquitoes is connected to the lower end 62 of the “Y” of the air conditioned tubular system of the olfactometer 60. The two arms 64 and 65 of the “Y” each include the control chamber 70 and test chamber 72. Air L flows through both chambers 70, 72 and is then combined in the base leg 66 of the “Y”. During the phase when the stimulus is given, the test mosquitoes can fly into the direction of movement B into the olfactometer 60 and choose between the test chamber 72 with air containing the stimulus and the control chamber 70 containing clean air. Air L flows through the olfactometer 60 in the direction opposite to the direction of movement B of the mosquitoes, the air L being entrained with the attractant from the test chamber 72. Firstly, the activation or mobilization of the test mosquitoes is determined. This refers to a non-directional fly away of the mosquitoes when a stimulus is given. […] Then the orientation is further determined by counting the number of mosquitoes in the test chamber 72. […]

SMILES: O=C=O [CO2]
- directional orientation Y: about 50%
- undirected activation X: about 83%
